pIC50: −log10 of the molar value.
Experiments:
[1] = molecular target: Recombinant kinase JAK1 (Homo sapiens (Human), UniProt P23458); assay: In vitro JAK kinase inhibition assay (ADP-Glo), JAK1; format: biochemical; conditions: 30 μM ATP, peptide IRS-1, averaged
Procedure: (§1) In Vitro JAK Kinase Inhibition Assay
(§2) The effects of the compounds of the invention were analysed in vitro using kinase JAK inhibition assay described below.
(§3) Tested compounds were dissolved in 100% DMSO, and obtained stock solutions were serially diluted in the reaction buffer (50 mM Tris pH 7.5, 10 mM MgCl2, 0.25 mM EGTA, 0.1 mM Na3VO4, 0.01% Triton X-100, 2.5 mM DTT). Recombinant kinases JAK1 (ProQinase), JAK2, or JAK3 (Carna Biosciences) were diluted in the dilution buffer (50 mM Tris-HCl pH 7.5, 150 mM NaCl, 10% glycerol, 0.05% Triton X-100, 1 mM DTT) to the final concentration 3 ng/μL (JAK1), 0.1 ng/μL (JAK2), or 0.2 ng/μL (JAK3). 5 μL of obtained solution of the compounds and 5 μL of the solution of respective kinases were added to the well of a 96-well plate. To initiate interaction between tested compounds and an enzyme, the plate was incubated for 10 minutes at 25° C. in a Plate-Thermo-Shaker with orbital stirring at 400 rpm. Wells of a negative control contained all reagents as mentioned above with the exception of tested compounds and kinase, and wells of a positive controls contained all reagents as mentioned above with the exception of tested compounds. Enzymatic reaction was initiated by the addition of 15 μL of the following solution: 5× concentrated reaction buffer (50 mM Tris pH 7.5, 10 mM MgCl2, 0.25 mM EGTA, 0.1 mM Na3VO4, 0.01% Triton X-100, 2.5 mM DTT), water, 30 μM ATP and for particular kinases: JAK1—60 μM peptide IRS-1 (Enzo), JAK2 or JAK3—10 μM peptide IGF-1Rtide (Lipopharm). Then the plate was incubated for 1 hour at 25° C. in a Plate-Thermo-Shaker, with orbital stirring at 400 rpm. Detection of ADP formed in the enzymatic reaction was then performed using ADP-Glo Kinase Assay kit (Promega). For this purpose, to the well of the 96-well plate 25 μL of ADP-Glo Reagent were added, and the plate was incubated for 40 minutes at 25° C. in a Plate-Thermo-Shaker with orbital stirring at 400 rpm. Then to the well of the 96-well plate 50 μL of Kinase Detection Reagent were added and the plate was incubated for 30 minutes at 25° C. in a Plate-Thermo-Shaker with orbital stirring at 400 rpm. After incubation, luminescence intensity was measured using Victor×Light luminometer (Perkin Elmer, Inc.).
(§4) On the basis of luminescence measurement in wells containing tested compounds at various concentrations and in control wells, IC50 values were determined. These values were determined with Graph Pad software v. 5.03, by fitting points of the curve using non-linear regression method. Each compound was tested in at least 6 repetitions (6 wells) on two 96-well plates, using at least 3 wells of each control.
Averaged results of kinases JAK inhibition activity for selected compounds of the present invention are presented below in Table 1.

[2] = molecular target: Recombinant kinase JAK2 (Homo sapiens (Human), UniProt O60674); assay: In vitro JAK kinase inhibition assay (ADP-Glo), JAK2; format: biochemical; conditions: 30 μM ATP, peptide IGF-1Rtide, averaged
Procedure: as §1, §2
as §3, with “Enzymatic reaction was initiated by the addition of 15 μL of the following solution: 5× concentrated reaction buffer (50 mM Tris pH 7.5, 10 mM MgCl2, 0.25 mM EGTA, 0.1 mM Na3VO4, 0.01% Triton X-100, 2.5 mM DTT), water, 30 μM ATP and for particular kinases: JAK1—60 μM peptide IRS-1 (Enzo), JAK2 or JAK3—10 μM peptide IGF-1Rtide (Lipopharm).” left out
as §4

[3] = tested on: INFγ secreted by lymphocytes T; assay: Inhibition of INFγ production by lymphocytes T in vitro; format: cell-based; conditions: Lymphocyte, 48 hours, human CD4+ lymphocytes T; for inhibition at 0.01 µM: 10 nM; for inhibition at 0.1 µM: 100 nM; for inhibition at 1 µM: 1000 nM
Procedure: (§5) Assay for Inhibition of TNFα and INFγ Production by Lymphocytes T In Vitro
(§6) The activity of the compounds of the invention was tested using in vitro assay described below.
(§7) Tested compounds were dissolved in 100% DMSO, and obtained stock solutions were serially diluted with OptiMEM medium (Reduced Serum Medium-Thermo Fisher Scientific). Lymhocytes were isolated from leukocyte top coat layer obtained from human peripheral blood. Isolation of peripheral blood mononuclear cells was performed using Ficoll-Paque+Leucosept gradient method, with lymphocytes isolation using CD4+ T Cell Isolation Kit, and activation using T Cell Activation/Expansion Kit (Miltenyi Biotec). Isolated cells in culture medium (90% RPMI 1640+10% FBS) were sived on 12-well plates at 450 μL/well, 300 thousands/well, and 50 μL of prepared 10× stock solutions of tested compounds were added. After 48 hours supernatant was collected for determination of the level of secreted cytokines. Before determination, cells were centrifuged at 1000 g, 10 min. Determination was performed with flow cytometer FACS Calibur using LEGENDplex Human Th cytokine kit. Results are presented in Table 3 as a percentage of inhibition of TNFα i INFγ cytokines secreted by lymphocytes T with reference to control cells.

[4] = tested on: TNFα secreted by lymphocytes T; assay: Inhibition of TNFα production by lymphocytes T in vitro; format: cell-based; conditions: Lymphocyte, 48 hours, human CD4+ lymphocytes T; for inhibition at 0.01 µM: 10 nM; for inhibition at 0.1 µM: 100 nM; for inhibition at 1 µM: 1000 nM
Procedure: as §5, §6, §7

Chain of Recombinant kinase JAK2 (O60674 whole entry): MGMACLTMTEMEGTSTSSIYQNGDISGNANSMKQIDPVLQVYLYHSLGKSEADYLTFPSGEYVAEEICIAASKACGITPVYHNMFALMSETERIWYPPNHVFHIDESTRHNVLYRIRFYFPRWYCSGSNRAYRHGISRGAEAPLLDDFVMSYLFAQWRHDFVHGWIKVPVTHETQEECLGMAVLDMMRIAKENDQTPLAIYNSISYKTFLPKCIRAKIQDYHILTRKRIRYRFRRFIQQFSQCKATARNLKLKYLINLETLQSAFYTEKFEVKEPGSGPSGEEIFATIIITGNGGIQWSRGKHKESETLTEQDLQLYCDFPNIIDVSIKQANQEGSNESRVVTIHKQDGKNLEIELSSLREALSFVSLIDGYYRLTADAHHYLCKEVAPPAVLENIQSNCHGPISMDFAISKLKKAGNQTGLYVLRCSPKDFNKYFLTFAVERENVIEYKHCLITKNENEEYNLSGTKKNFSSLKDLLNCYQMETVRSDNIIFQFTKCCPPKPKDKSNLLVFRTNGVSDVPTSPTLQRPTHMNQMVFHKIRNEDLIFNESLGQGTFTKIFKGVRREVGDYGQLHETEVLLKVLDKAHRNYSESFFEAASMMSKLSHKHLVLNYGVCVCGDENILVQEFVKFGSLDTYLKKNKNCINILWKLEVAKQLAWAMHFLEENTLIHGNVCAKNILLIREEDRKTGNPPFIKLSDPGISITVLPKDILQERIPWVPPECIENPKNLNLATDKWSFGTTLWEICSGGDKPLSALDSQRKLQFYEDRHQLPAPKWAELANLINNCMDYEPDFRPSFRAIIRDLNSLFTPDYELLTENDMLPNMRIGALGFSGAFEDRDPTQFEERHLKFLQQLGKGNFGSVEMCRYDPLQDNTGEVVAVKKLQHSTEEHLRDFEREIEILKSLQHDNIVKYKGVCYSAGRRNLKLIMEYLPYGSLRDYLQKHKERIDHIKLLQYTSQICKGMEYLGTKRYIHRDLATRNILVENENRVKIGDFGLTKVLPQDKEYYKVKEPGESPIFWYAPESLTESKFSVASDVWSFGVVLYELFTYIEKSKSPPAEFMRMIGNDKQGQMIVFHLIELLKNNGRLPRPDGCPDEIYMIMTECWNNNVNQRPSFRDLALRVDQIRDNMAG
Chain of Recombinant kinase JAK1 (P23458 whole entry): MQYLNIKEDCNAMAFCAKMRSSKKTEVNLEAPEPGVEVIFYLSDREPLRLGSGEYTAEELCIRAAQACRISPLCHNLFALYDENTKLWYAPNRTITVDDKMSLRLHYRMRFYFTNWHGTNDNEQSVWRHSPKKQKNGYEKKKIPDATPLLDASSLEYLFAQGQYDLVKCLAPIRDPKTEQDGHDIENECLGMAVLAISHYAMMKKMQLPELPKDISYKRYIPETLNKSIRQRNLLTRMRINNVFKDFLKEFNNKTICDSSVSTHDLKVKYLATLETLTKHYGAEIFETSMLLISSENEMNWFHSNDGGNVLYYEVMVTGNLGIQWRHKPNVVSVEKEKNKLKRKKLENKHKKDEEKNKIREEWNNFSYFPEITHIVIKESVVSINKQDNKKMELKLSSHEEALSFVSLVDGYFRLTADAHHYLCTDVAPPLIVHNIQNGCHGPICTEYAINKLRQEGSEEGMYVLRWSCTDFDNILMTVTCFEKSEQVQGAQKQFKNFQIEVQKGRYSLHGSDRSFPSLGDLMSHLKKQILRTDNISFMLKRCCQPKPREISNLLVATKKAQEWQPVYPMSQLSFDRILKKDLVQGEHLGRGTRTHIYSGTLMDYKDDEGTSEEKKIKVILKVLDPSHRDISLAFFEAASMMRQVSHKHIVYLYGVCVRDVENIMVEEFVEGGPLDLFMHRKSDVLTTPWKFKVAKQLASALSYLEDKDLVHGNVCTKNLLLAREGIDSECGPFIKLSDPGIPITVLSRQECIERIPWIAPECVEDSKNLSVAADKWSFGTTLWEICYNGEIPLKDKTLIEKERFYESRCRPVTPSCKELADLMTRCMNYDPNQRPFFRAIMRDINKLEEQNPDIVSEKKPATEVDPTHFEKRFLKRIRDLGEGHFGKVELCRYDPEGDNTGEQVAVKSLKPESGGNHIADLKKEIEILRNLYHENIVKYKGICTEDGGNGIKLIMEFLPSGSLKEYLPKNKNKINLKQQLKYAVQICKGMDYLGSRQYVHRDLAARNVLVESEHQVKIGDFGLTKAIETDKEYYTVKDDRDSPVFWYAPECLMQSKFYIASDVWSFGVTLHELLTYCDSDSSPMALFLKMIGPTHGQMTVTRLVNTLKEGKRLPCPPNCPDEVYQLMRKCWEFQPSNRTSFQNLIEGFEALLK

| pIC50 [1] | pIC50 [2] | SMILES | inhibition at 0.01 µM [3] [%] | inhibition at 0.1 µM [3] [%] | inhibition at 1 µM [3] [%] | inhibition at 0.01 µM [4] [%] | inhibition at 0.1 µM [4] [%] | inhibition at 1 µM [4] [%] |
| --- | --- | --- | --- | --- | --- | --- | --- | --- |
| 8.57 | 7.56 | COc1ccc(-c2cc3ncc(C(N)=O)c(N[C@@H]4CCN(c5ccc(C#N)nn5)CC4(C)C)n3n2)cn1 [Example 4, (R)-7-((1-(6-Cyanopyridazin-3-yl)-3,3-dimethylpiperidin-4-yl)amino)-2-(6-methoxy-pyridin-3-yl)pyrazolo[1,5-a]pyrimidine-6-carboxamide] | 80.9 | 86.5 | 95.6 | 57.1 | 78.7 | 95.3 |
| 9.12 | 8.47 | CC1(C)CN(c2ccc(C#N)nn2)CC[C@H]1Nc1c(C(N)=O)cnc2cc(-c3ccc(N4CCOCC4)nc3)nn12 [Example 7, (R)-7-((1-(6-Cyanopyridazin-3-yl)-3,3-dimethylpiperidin-4-yl)amino)-2-(6-morpholinopyridin-3-yl)pyrazolo[1,5-a]pyrimidine-6-carboxamide] | 73.6 | 74.6 | 98.1 | 60.6 | 76 | 98.5 |
| 10.30 | 8.93 | COc1cccc(-c2cc3ncc(C(N)=O)c(N[C@@H]4CCN(c5ccc(C#N)nn5)CC4(C)C)n3n2)n1 [Example 11, (R)-7-((1-(6-Cyanopyridazin-3-yl)-3,3-dimethylpiperidin-4-yl)amino)-2-(6-methoxy-pyridin-2-yl)pyrazolo[1,5-a]pyrimidine-6-carboxamide] | 88.8 | 93.5 | 81.4 | 57.4 | 88.1 | 88.5 |
| 9.29 | 8.30 | Cc1cc(-c2cc3ncc(C(N)=O)c(N[C@@H]4CCN(c5ccc(C#N)nn5)CC4(C)C)n3n2)ccn1 [Example 12, (R)-7-((1-(6-Cyanopyridazin-3-yl)-3,3-dimethylpiperidin-4-yl)amino)-2-(2-methyl-pyridin-4-yl)pyrazolo[1,5-a]pyrimidine-6-carboxamide] | 86.2 | 88 | 93 | 76.2 | 75.8 | 95.4 |
